The values that follow come from BigSolDB 2.1.

The conditions of the data set: in water.

The structures appear in SMILES notation.

As for `O=Cc1ccco1`, the solubility (mole fraction) (commonly solubility expressed as the solute's share of all molecules) runs as follows: (353.15 K) 0.028; (363.15 K) 0.0314; (373.15 K) 0.034.
On to `CCCCCC1CCC(=O)O1` (configuration not stated), for which the solubility (mole fraction) worked out at 0.00072 (323.15 K); 0.00087 (333.15 K); 0.00099 (343.15 K); 0.00109 (353.15 K); 0.00118 (363.15 K); 0.00128 (373.15 K).
Turning to `O=Cc1ccccc1`, the solubility (mole fraction) runs as follows: (353.15 K) 0.00236; (363.15 K) 0.00261; (373.15 K) 0.0036.
Turning to `OCCc1ccccc1`, the solubility (mole fraction) by setting is: (333.15 K) 0.0051; (343.15 K) 0.0055; (353.15 K) 0.0056; (363.15 K) 0.0065; (373.15 K) 0.0065.
